Assay results published in patent publication US20080214845A1, “ANTIBACTERIAL 6'-MODIFIED 4,5-SUBSTITUTED AMINOGLYCOSIDE ANALOGS” (priority 2005, published 2008).
Converted amounts (≈) assume the structure as drawn.

How the values were obtained:
E. Coli. = experiment: Minimum inhibitory concentration (MIC), E. coli; type: cell-based; settings: range of concentration, 20-24 hours at 37° C., A595; for MIC: Escherichia coli
Description: (§1) The assays are carried out in 150 μL volume in duplicate in 96-well clear flat-bottom plates. The bacterial suspension from an overnight culture growth in appropriate medium is added to a solution of test compound in 2.5% DMSO in water. Final bacterial inoculum is approximately 10^2-10^3 CFU/well. The percentage growth of the bacteria in test wells relative to that observed for a control wells containing no compound is determined by measuring absorbance at 595 nm (A595) after 20-24 hours at 37° C. The MIC is determined as a range of concentration where complete inhibition of growth is observed at the higher concentration and bacterial cells are viable at the lower concentration. Both ampicillin and tetracycline are used as antibiotic positive controls in each screening assay.

S. Aureus = experiment: Minimum inhibitory concentration (MIC), S. aureus; type: cell-based; settings: range of concentration, 20-24 hours at 37° C., A595; for MIC: Staphylococcus aureus
Description: as §1

Row | Compound | MIC E. Coli. (E. Coli.) [µM] | MIC S. Aureus (S. Aureus) [µM] | MIC (E. Coli.) [µM] | MIC (S. Aureus) [µM]
1 | Cc1ccc(CCNC[C@H]2O[C@H](O[C@H]3[C@H](O[C@@H]4O[C@H](CO)[C@@H](O[C@H]5O[C@@H](CN)[C@@H](O)[C@H](O)[C@H]5N)[C@H]4O)[C@@H](O)[C@H](N)C[C@@H]3N)[C@H](N)[C@@H](O)[C@@H]2O)cc1 [IBIS00561930] | 2.5 to 5.0 | 0.6 to 1.2 | – | –
2 | CN(CCc1ccccc1)C[C@H]1O[C@H](O[C@H]2[C@H](O[C@@H]3O[C@H](CO)[C@@H](O[C@H]4O[C@@H](CN)[C@@H](O)[C@H](O)[C@H]4N)[C@H]3O)[C@@H](O)[C@H](N)C[C@@H]2N)[C@H](N)[C@@H](O)[C@@H]1O [IBIS00561931] | 2.5 to 5.0 | 0.31 to 0.62 | – | –
3 | NC[C@@H]1O[C@H](O[C@H]2[C@@H](O)[C@H](O[C@@H]3[C@@H](O)[C@H](N)C[C@H](N)[C@H]3O[C@H]3O[C@H](CNCCCc4ccccc4)[C@@H](O)[C@H](O)[C@H]3N)O[C@@H]2CO)[C@H](N)[C@@H](O)[C@@H]1O [IBIS00561932] | 0.6 to 1.2 | 0.31 to 0.62 | – | –
4 | COc1ccc(CCNC[C@H]2O[C@H](O[C@H]3[C@H](O[C@@H]4O[C@H](CO)[C@@H](O[C@H]5O[C@@H](CN)[C@@H](O)[C@H](O)[C@H]5N)[C@H]4O)[C@@H](O)[C@H](N)C[C@@H]3N)[C@H](N)[C@@H](O)[C@@H]2O)cc1 [IBIS00561933] | – | – | 1.25 to 2.5 (≈ 0.936 to 1.87 µg/mL) | 0.31 to 0.62 (≈ 0.232 to 0.464 µg/mL)
5 | COc1cccc(CCNC[C@H]2O[C@H](O[C@H]3[C@H](O[C@@H]4O[C@H](CO)[C@@H](O[C@H]5O[C@@H](CN)[C@@H](O)[C@H](O)[C@H]5N)[C@H]4O)[C@@H](O)[C@H](N)C[C@@H]3N)[C@H](N)[C@@H](O)[C@@H]2O)c1 [IBIS00561934] | 1.25 to 2.5 | 0.31 to 0.62 | – | –
6 | COc1ccccc1CCNC[C@H]1O[C@H](O[C@H]2[C@H](O[C@@H]3O[C@H](CO)[C@@H](O[C@H]4O[C@@H](CN)[C@@H](O)[C@H](O)[C@H]4N)[C@H]3O)[C@@H](O)[C@H](N)C[C@@H]2N)[C@H](N)[C@@H](O)[C@@H]1O [IBIS00561935] | 1.25 to 2.5 | 0.31 to 0.62 | – | –
7 | NCC1OC(OC2C(CO)OC(OC3C(O)C(N)CC(N)C3OC3OC(CNCC(O)c4ccccc4)C(O)C(O)C3N)C2O)C(N)C(O)C1O (stereo not drawn) [IBIS00561937] | 5.0 to 10.0 | 0.6 to 1.2 | – | –
8 | NC[C@@H]1O[C@H](O[C@H]2[C@@H](O)[C@H](O[C@@H]3[C@@H](O)[C@H](N)C[C@H](N)[C@H]3O[C@H]3O[C@H](CN4CCC5CCCCC54)[C@@H](O)[C@H](O)[C@H]3N)O[C@@H]2CO)[C@H](N)[C@@H](O)[C@@H]1O (stereo partly drawn) [IBIS00561939] | – | – | 1.25 to 2.5 (≈ 0.904 to 1.81 µg/mL) | 0.31 to 0.62 (≈ 0.224 to 0.448 µg/mL)
9 | NCC1OC(OC2C(CO)OC(OC3C(O)C(N)CC(N)C3OC3OC(CNCCc4c[nH]c5ccccc45)C(O)C(O)C3N)C2O)C(N)C(O)C1O (stereo not drawn) [IBIS00561940] | 1.25 to 2.5 | 1.25 to 2.5 | – | –
10 | NC[C@@H]1O[C@H](O[C@H]2[C@@H](O)[C@H](O[C@@H]3[C@@H](O)[C@H](N)C[C@H](N)[C@H]3O[C@H]3O[C@H](CNCCc4ccc(C(F)(F)F)cc4)[C@@H](O)[C@H](O)[C@H]3N)O[C@@H]2CO)[C@H](N)[C@@H](O)[C@@H]1O [IBIS00561942] | 1.25 to 2.5 | 0.31 to 0.62 | – | –
11 | NC[C@@H]1O[C@H](O[C@H]2[C@@H](O)[C@H](O[C@@H]3[C@@H](O)[C@H](N)C[C@H](N)[C@H]3O[C@H]3O[C@H](CNCCc4cccc(C(F)(F)F)c4)[C@@H](O)[C@H](O)[C@H]3N)O[C@@H]2CO)[C@H](N)[C@@H](O)[C@@H]1O [IBIS00561943] | – | – | 0.6 to 1.2 (≈ 0.472 to 0.944 µg/mL) | 0.16 to 0.31 (≈ 0.126 to 0.244 µg/mL)
12 | NC[C@@H]1O[C@H](O[C@H]2[C@@H](O)[C@H](O[C@@H]3[C@@H](O)[C@H](N)C[C@H](N)[C@H]3O[C@H]3O[C@H](CNCCc4ccc(F)cc4)[C@@H](O)[C@H](O)[C@H]3N)O[C@@H]2CO)[C@H](N)[C@@H](O)[C@@H]1O [IBIS00561944] | 0.6 to 1.2 | 0.16 to 0.31 | – | –
